Assay results taken from patent US6746686B2, “Coated implants” (Biocompatibles UK Limited, priority 2001, dated 2004).

Tests used:
Assay type in all cases: physicochemical
[1] = Uptake of fluorescence labelled oligonucleotide on polymer 2.2 coated stent; settings: polymer 2.2 coated stents; 30 minutes in 5 mg/ml solution in physiological saline
Description: Stents coated with polymer 2.2 were loaded with a 15-mer c-myc antisense oligonucleotide AACGTTGAGGGGCAT (sequence ID 2) labelled with a fluorescence label by immersing them for 30 minutes in a 5 mg/ml solution of the DNA in physiological saline.
The total loading was determined by placing 3 of the stents each into 3 ml PBS and sonicating for 30 minutes. The fluorescent label was quantified.

[2] = Loading of polymer films with FITC-Dextran; settings: FITC-Dextran mwt 4400; polymer 1.1 and polymer 2.1 coatings
Description: Steel strips (1 cm×1.5 cm) were cleaned in dichloromethane for 10 minutes using the ultra-sonics bath. 200 ul of a 50 mg/ml polymer solution was evenly coated onto the steel strips. For each polymer sample seven steel strips were coated. Coated steel strips were then dried overnight in a oven at 70° C. to cure the polymer films.
Six of the coated steel strips were placed polymer side down into a well containing a 1 mg/ml drug solution. One control sample was not loaded with drug. The steel strips were submerged for 1 hour. The steel strips were then removed from the well and the excess drug removed by dabbing the surface very gently with tissue. The steel strips were then allowed to dry for a further half hour at room temperature. Each sample was then dipped quickly in clean PBS solution to remove excess drug from the coating. (3 secs dip). Each steel strip was then placed in 3 ml of PBS solution contained in vials. Each vial was then sonicated for 20 mins at a bath temperature of 35° C. in order to extract the drug from the polymer coating. Each solution was then measured using fluorescence spectroscopy to determine the amount of drug uptake
In order to study the effect of drug molecular weight on the amount loaded into a polymer coating, a compound with a variety of molecular weights which could be detected by fluorescence had to be identified. […]

[3] = Abciximab loading and elution in vitro
Description: In this study ^125I-labelled abciximab was loaded onto stents coated with either polymer 2.2 or as a comparison a bare stent (no polymer) by immersing the stents in a solution of 2 mg/ml drug in phosphate buffered saline containing 0.001% polysorbate 80 to assist dissolution for 30 minutes at room temperature. The stents were removed and wick dried. The stents were then placed into channels each forming part of a separate circuit of recirculating ([…]) phosphate buffered saline containing 1% albumin at 37° C. The level of 1251 label remaining on the stent was determined by measuring the level of label in the circulating PBS over a period of 24 or 48 hours and reported in percentage terms. The total loading of drug on stent was also determined and found to be about 5 μg per stent for the stents coated with polymer 2.2.

[4] = Heparin loading and release, polymer 2.1 coated stents
Description: This study investigated the ability of polymer 2.1 coated stents to take up and release a sample of unfractionated heparin with an average molecular weight of approx. 10000D.
Loading was carried out by immersion of the coated stents into a solution of heparin in PBS. A range of conditions were used to investigate the loading onto the stents.
Table 6 Summary of conditions and results of heparin loading and release Notes—*the time where released heparin reaches maximum; **the maximum weight of heparin released during a releasing experiment (see maximum point of the release profile, FIG. 2)

[5] = Radiolabelled (35S) heparin loading and elution, polymer 2.2 coated stents
Description: Radiolabelled (^35S) heparin (MW 8-10 kDa) was loaded onto stents coated with polymer 2.2, from a 2 mg/ml aqueous solution. To determine the total loading the stents were placed into liquid scintillant and coated for radioactivity. The mean uptake of heparin was 11 μg per stent. The stents were each placed into a volume of PBS to determine the rate of elution of heparin over a 4 hour period.

[6] = polymer 2.1 stent, loading 0.2 mg/ml, 30 min, released into 1 volume PBS
[7] = polymer 2.1 stent, loading 2.0 mg/ml, 30 min, released into 0.5 volume PBS
[8] = polymer 2.1 stent, loading 10 mg/ml, 5 min, released into 0.5 volume PBS

In the case of “AACGTTGAGGGGCAT [15-mer c-myc antisense oligonucleotide]”, the Total loading [1] is reported as “about 20 μg per stent”.
With “Fluorescein Iso Thiocyanate Dextran [FITC-Dextran]” the “Uptake into polymer coatings” value [2] was “could not be detected”.
For “abciximab: antibody (MW about 50 kDa) to glycoprotein IIb/IIIa”, the “Release time from stent” value ([3]; cationic polymer (2.2) vs bare stent, PBS with 1% albumin at 37° C.) was “released over a more extended time” and the “Total loading of drug on stent” value ([3]; stents coated with polymer 2.2, 2 mg/ml, 30 minutes, room temperature) was “about 5 μg per stent”.
For heparin, the “Release from the stents” value ([4]; polymer 2.1 coated stents) was “released from the stents over a prolonged period of time”, the Total loading ([4]; polymer 2.1 stent, loading 0.2 mg/ml, 30 min) was 3.4 µg and the “Tmax (time where released heparin reaches maximum)” value (from here on “Tmax”) [4, 6] was 15 min. For the same substance, the “Wmax (maximum weight of heparin released)” value (“Wmax” for short) [4, 6] was 0.73 µg, the “Tmax” value [4, 7] was 20 min and the “Wmax” value [4, 7] was 2.07 µg. The “Tmax” value [4, 8] was 10 min, the “Wmax” value [4, 8] was 13.93 µg and the “Mean uptake of heparin” value ([5]; 2 mg/ml aqueous solution) was 11 μg per stent. The Release pattern ([5]; elution into PBS over 4 hours) was “released initially as a burst” and the “Time to 100% release of heparin” value ([5]; elution into PBS, extrapolation of 4 hour release data) was “about 24 hours”.
